The text below walks through data of patent US20050037975A1, “Method for treatment of glutamate related disorders” (priority 1997, published 2005).

Where a chain is given by its changes, count along the chain named.

Series [1] concerns the target T1, rat liver mitochondrial low Km ALDH (Rattus norvegicus, UniProt P11884).
T1 construct: differential centrifugation carried out to isolate the mitochondrial faction; from tissue; host or cells: liver mitochondria of male Sprague-Dawley derived rats
T1 sequence (P11884 20-519): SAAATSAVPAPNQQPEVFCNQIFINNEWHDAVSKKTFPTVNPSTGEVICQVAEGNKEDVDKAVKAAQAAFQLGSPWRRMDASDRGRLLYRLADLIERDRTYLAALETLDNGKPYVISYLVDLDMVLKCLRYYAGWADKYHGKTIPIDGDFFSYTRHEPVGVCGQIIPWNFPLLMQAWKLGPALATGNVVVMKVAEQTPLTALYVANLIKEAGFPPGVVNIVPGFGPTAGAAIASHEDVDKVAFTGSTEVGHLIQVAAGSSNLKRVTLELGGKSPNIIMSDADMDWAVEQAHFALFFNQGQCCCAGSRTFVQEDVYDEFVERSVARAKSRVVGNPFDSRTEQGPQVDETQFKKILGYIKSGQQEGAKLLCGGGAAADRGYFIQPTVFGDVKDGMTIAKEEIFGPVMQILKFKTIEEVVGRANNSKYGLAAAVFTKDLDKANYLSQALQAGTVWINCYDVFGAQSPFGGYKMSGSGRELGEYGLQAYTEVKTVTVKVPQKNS
Briefly: In vitro inhibition of rat liver mitochondrial low Km aldehyde dehydrogenase (isolated mitochondria). The class given is biochemical. To be noted: one hour incubation. The protocol: To determine whether a compound of formula (I) can inhibit low Km aldehyde dehydrogenase, an amount of the compound is added to isolated mitochondria. To prepare isolated mitochondria, male Sprague-Dawley derived rats weighing 200-400 g were anesthetized with carbon dioxide and then decapitated. The livers from untreated rats were homogenized in 0.25 M sucrose and differential centrifugation carried out to isolate the mitochondrial faction. The mitochondria were solubilized with sodium deoxycholate, and mitochondrial low Km ALDH activity determined by the method of S. O. C. Tottmar et al., Biochem. J. 135, 577 (1973).
Mitochondria were isolated from the liver of untreated rats and resuspended in 0.1 M phosphate buffer (pH=7.4). Incubations contained 2 mg of mitochondrial protein, to which was added DETC-Me SO at 0.2 μM, 2.0 μM, 20 μM or 200 μM, or DDTC-Me SO at 0.5 μM, 2.5 μM, 10 μM; 25 μM, 50 μM or 100 μM. The DETC-Me SO or DDTC-Me SO was dissolved in ethanol and the incubations carried out for one hour. Control incubations contained ethanol alone.
At the end of the incubation, the mitochondria were isolated by centrifugation, resuspended in 0.25 M sucrose buffer and solubilized with deoxycholate. Low Km ALDH activity was determined by the method of S. O. C. Tottmar et. al., cited above.

Series [2] concerns brain glutamate receptors (synaptic membranes). Briefly: Glutamate binding to synaptic membranes isolated from treated mice. The class given is in vivo, mouse. To be noted: 30 μmol/kg intravenous, mice. The protocol: Binding Studies—Synaptic membranes (100 μg protein) were isolated (Y. H. Lee et al., J. Neurosci. Res. 40, 797-806 (1995)) form whole brain homogenate of male Swiss Webster mice and were incubated in 0.1 mM L-glutamate for 30 minutes at 25° C. After addition of 50 nM of [^3H]glutamate, incubation was continued for an additional 45 minutes. Reactions were terminated by centrifugation at 4° C. to separate membrane-bound from free radioactivity. Nonspecific binding (radioactivity bound in the presence of 0.5 mM unlabeled glutamate) averages: 20-30% of total radioactivity bound. The rate (k) and maximum percent blockage of glutamate binding (M) by DETC-MeSO (1) during the incubation time (t) was determined by fitting the equation [% inhibition]=M(1−e^−kh) to these day by use of the program Grafit (Erithicus Software Ltd.). This equation was derived for first-order inactivation by a group specific reagent that gives a partial effect. If “A” is the percent of binding activity that remains after extensive exposure (t=of the receptor to excess DETC-MeSO, then M=100−A)e^−kh+A; substituting (100−M) for “A” and [100−% inhibition] for “a” in this equation gives the one employed for purposes of data analyses. […] A second equation was employed in the analysis of binding data that defines partial, irreversible inactivation of two distinct groups of receptors [% inhibition]=M1(1−e^−k1^IT)+M2(1−e^−k1^IT), where M1 and M2 are the maximum amount of inhibition obtained for complete modification of each receptor population and k1 and k2 are the rate constants for these modifications, respectively.
Synaptic membranes were prepared from the brains of mice injected with DETC-MeSO (5.2 mg/kg, i.p.). The ability of synaptic membrane preparations isolated from DETC-MeSO-treated mice to bind glutamate was compared with similar preparations isolated from control animals. FIG. 3(A) illustrates the results obtained from synaptic membranes prepared from brains of mice killed two hours after a single dose of DETC-MeSO, or two hours after the last injection of multiple consecutive doses (5.2 mg/kg, i.p., daily for seven days). Either single or multiple dosing with DETC-MeSO reduced the capacity of synaptic membranes to bind glutamate by approximately 50%, the maximum effect obtained in vitro (FIG. 3). Each bar represents the average of results obtained from four animals and the error bars are for one standard deviation.

The target in series [3] is T2, mouse liver low Km ALDH (Mus musculus, UniProt P47738).
T2 construct: Liver aldehyde dehydrogenase was extracted and assayed as previously described; from tissue; host or cells: liver of treated mice
T2 sequence (P47738 20-519): T1 sequence (P11884 20-519) with Q13H, K34R, Q67R, D237G, D313N, N422D
Description: In vivo inhibition of mouse liver aldehyde dehydrogenase. To be noted: mouse; 30 μmol/kg intravenous, mice. The protocol: Reagents—DETC-MeSO was synthesized by the method of Hart and Faiman (B. W. Hart et al., Biochem. Pharmacol.), 43, 403-406 (1992). Carbamoylated glutathione, S-(N,N-diethylcarbamoyl)glutathione (DETC-GS), was prepared essentially as described by Jin et al. (L. Jin, supra). The structures and purity of DETC-MeSO and DETC-GS were confirmed by 300 MHz NMR and FAB-tandem mass spectrometry. A QE300 NMR spectrometer (General Electric, Fremont, Calif.) and Autospec-Q Tandem Hybrid mass spectrometer (Fiscons/VG Analytical Limited, Manchester, England) were employed for these analyses. Liver aldehyde dehydrogenase was extracted and assayed as previously described (B. W. Hart et al., supra). MetSOX monosodium L-glutamate, glycine, glutathione, and NMDA were purchased from Sigma Chemical Company (St. Louis, Mo.). L-[3-^3H]Glutamate (46 Ci/mmol) was obtained from Amerisham Life Science (Buckinghamshire, England).

The subject of series [4] is ALDH2. Description: In vitro inactivation of aldehyde dehydrogenase. Format: biochemical. To be noted: reversible or irreversible. The protocol:
To test whether the protective effect of DETC-MeSO in hyperbaric O2-induced convulsions in mice could be due to inhibition of succinic semi-aldehyde dehydrogenase (SSA DH), mechanistically related to ALDH2, the sensitivity of SSA DH to inactivation by DETC-MeSO was determined. Potentially, inhibition of SSA DH in brain could offset the build up of ammonia known to occur and produce more GABA. In vitro both ALDH2 and SSA DH are inactivated by DETC-MeSO at 47 M-1 s-1 and 300 M-1 s-1, respectively.

The test system of series [5] is brain glutamate receptors (synaptic membranes). Briefly: [3H]glutamate binding to mouse brain synaptic membranes in vitro. To be noted: for effect on glutamate binding to synaptic membrane preparations: in vitro, without glycine. As to the method: Binding Studies—Synaptic membranes (100 μg protein) were isolated (Y. H. Lee et al., J. Neurosci. Res. 40, 797-806 (1995)) form whole brain homogenate of male Swiss Webster mice and were incubated in 0.1 mM L-glutamate for 30 minutes at 25° C. After addition of 50 nM of [^3H]glutamate, incubation was continued for an additional 45 minutes. Reactions were terminated by centrifugation at 4° C. to separate membrane-bound from free radioactivity. […] The rate (k) and maximum percent blockage of glutamate binding (M) by DETC-MeSO (1) during the incubation time (t) was determined by fitting the equation [% inhibition]=M(1−e^−kh) to these day by use of the program Grafit (Erithicus Software Ltd.). This equation was derived for first-order inactivation by a group specific reagent that gives a partial effect. If “A” is the percent of binding activity that remains after extensive exposure (t=of the receptor to excess DETC-MeSO, then M=100−A)e^−kh+A; substituting (100−M) for “A” and [100−% inhibition] for “a” in this equation gives the one employed for purposes of data analyses. […] A second equation was employed in the analysis of binding data that defines partial, irreversible inactivation of two distinct groups of receptors [% inhibition]=M1(1−e^−k1^IT)+M2(1−e^−k1^IT), where M1 and M2 are the maximum amount of inhibition obtained for complete modification of each receptor population and k1 and k2 are the rate constants for these modifications, respectively.
Six determinations of the effect of DETC-MeSO were made at each concentration tested (1, 5, 10, 50, 100, 200, and 1000 μM) and the average value is shown with error bars for one standard deviation.

Series [6] is described as follows: Carbamoylation of glutathione by DETC-MeSO under physiological conditions. To be noted: under physiological conditions. An excerpt:
This rate of reaction was approximate an order of magnitude faster than that of the more familiar α-haloketone functionality.

Series [7] deals with T1, rat liver mitochondrial low Km ALDH. Description: Liver aldehyde dehydrogenase determined in vivo. To be noted: intraperitoneal (IP), liver taken eight hours later. As to the method:
To determine if a compound of formula (I) can inhibit aldehyde dehydrogenase activity in vivo, doses of DETC-Me SO (1.3 mg/kg, 2.6 mg/kg, 5.2 mg/kg, 10.3 mg/kg and 20.6 mg/kg), were administered to male Sprague Dawley derived rats weighing 200-400 g. The rats were bred from a resident colony maintained in the Animal Care Unit at the University of Kansas. Rats were maintained on a 12-hour lights cycle with access to food and water ad lib until the night before an experiment, at which time food was removed. Animals were fasted for 12 hours prior to drug administration.
All experiments were carried out in the morning. Rats were treated with the doses of DETC-Me SO or DETC-Me described above, which were dissolved in polyethylene glycol 200. Eight hours later, the rats were anesthetized with carbon-dioxide and then decapitated. The liver was quickly removed and the low Km aldehyde dehydrogenase determined. Control rats were treated with […] vehicle only, and each control data point also represents an average of four rats.
The liver from drug-treated and control rats was homogenized in 0.25 M sucrose and differential centrifugation was carried out to isolate the mitochondrial fraction. The mitochondria were solubilized with sodium deoxycholate, and mitochondrial low Km and total (high and low) aldehyde dehydrogenase activity determined by the method of S. O. C. Tottmar et al., cited above.

As to `CCN(CC)C(=S)[S+](C)[O-]` (centres unmarked) [DDTC-Me SO, S-Methyl-N,N-Diethyldithiocarbamate Sulfoxide], the IC50 in series [1] (2 mg mitochondrial protein, read-out: concentration required for 50% inhibition) was ~15 µM.
With `CCN(CC)C(=O)SC[C@H](NC(=O)CC[C@H](N)C(=O)O)C(=O)NCC(=O)O` [DETC-GS, S-(N,N-diethylcarbamoyl)glutathione], in series [2], the “irreversible brain glutamate receptor blockage” value worked out at 26.9±4.3%. Besides, the inhibition (in general, the drop in the measured response relative to a control, in per cent) at 30 µmol/kg in series [3] was found to be 30.1 ± 1%. Moreover, the “effect on aldehyde dehydrogenase in vitro” value in series [4] is “no effect”. Also, in series [5], the “effect on glutamate binding to synaptic membrane preparations” value (shortened to “effect on glutamate binding”) is given as “reversibly blocked”. Also, in series [6], the “stability of the carbamoylated glutathione” value was “relatively stable”.
In the case of `CCN(CC)C(=O)SC` [DETC-Me, S-Methyl-N,N-Diethylthiolcarbamate], the “inhibition of low Km ALDH” value in series [1] (200 μM) was determined as 8%. Moreover, in series [7], the “dose required to inhibit 50% of the low Km ALDH” value came to 6.5 mg/kg.
In the case of `CN[C@H](CC(=O)O)C(=O)O` [NMDA, N-methyl-D-asparate, reference compound], the “reversible blockage of glutamate binding” value in series [5] (0.5 mM, in the presence of glycine (0.1 mM)) is given as 32±2%. Moreover, in series [5], the “effect on glutamate binding” value is “does not block glutamate binding”.
Turning to “oxidized glutathione [GSSG, reference compound]”, in series [5], the “effect on glutamate binding” value is listed as “reversibly blocked”.
